Experimental findings from US20240383886A1, “Protein Tyrosine Phosphatase Degraders and Methods of Use Thereof” (CALICO LIFE SCIENCES LLC, priority 2019, published 2024) are described below.

Test [1] relates to PTPN2. Description: HiBiT-Degradation B16F10.4 PTPN2. The class given is cell-based. To be noted: B16F10.4 cells, 24.0 hours.
In test [2] the target is T1, PTPN2 (Homo sapiens, UniProt P17706).
T1 construct: expressed in transfected cells; host or cells: 293T (293T.109 HiBiT-PTPN2 line; parental 293T WT from ATCC)
T1 sequence (P17706 1-415): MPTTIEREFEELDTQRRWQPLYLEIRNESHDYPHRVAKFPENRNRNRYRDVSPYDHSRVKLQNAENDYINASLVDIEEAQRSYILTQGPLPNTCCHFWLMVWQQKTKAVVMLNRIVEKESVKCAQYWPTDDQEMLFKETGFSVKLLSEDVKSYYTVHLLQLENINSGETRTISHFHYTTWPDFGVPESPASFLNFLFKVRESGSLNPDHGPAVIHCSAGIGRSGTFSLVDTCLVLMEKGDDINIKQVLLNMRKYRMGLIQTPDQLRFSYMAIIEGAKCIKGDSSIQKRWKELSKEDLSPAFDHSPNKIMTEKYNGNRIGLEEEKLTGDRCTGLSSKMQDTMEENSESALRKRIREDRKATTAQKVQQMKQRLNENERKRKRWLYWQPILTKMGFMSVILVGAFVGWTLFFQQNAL
Description: HiBiT-Degradation 293T.109 PTPN2 (Nano-Glo HiBiT Lytic Assay). Type of test: cell-based. The following applies: 293T.109 (HiBiT-PTPN2) cells, 24.0 hours. In outline: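 293T cells ectopically expressing N-terminally HiBiT-tagged PTPN2 were seeded at 5000 cells/well. They were treated with an 11-point half-log titration from 10 μM, in duplicate, for 24 hours at 37° C., 5% CO2. Remaining tagged PTPN2 was quantified by lytic HiBiT luminescence against untreated and no-reagent controls.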

As a reminder, the DC50 is the concentration at which degradation of the target reaches its halfway point. Low readings indicate a more potent degrader, high ones a less potent degrader.

As to `Cn1c(=O)n(C2CCC(=O)NC2=O)c2ccc(C3CCN(CC(=O)N4CCN(c5ccc6cc(O)c(N7CC(=O)NS7(=O)=O)c(F)c6c5)CC4)CC3)cc21` (stereo not shown) [Example 156, 3-[5-[1-[2-[4-[8-fluoro-6-hydroxy-7-(1,1,4-trioxo-1,2,5-thiadiazolidin-2-yl)-2-naphthyl]piperazin-1-yl]-2-oxo-ethyl]-4-piperidyl]-3-methyl-2-oxo-benzimidazol-1-yl]piperidine-2,6-dione], the DC50 in the test on PTPN2 [1] is 0.2 to 1 µM; on PTPN2 [2], 0.01 to 0.05 µM.

As for `Cn1c(=O)n(C2CCC(=O)NC2=O)c2ccc(C3CCN(CC(C)(C)CCOc4ccc5cc(O)c(N6CC(=O)NS6(=O)=O)c(F)c5c4)CC3)cc21` (stereo not shown) [Example 157, 3-[5-[1-[4-[[8-fluoro-6-hydroxy-7-(1,1,4-trioxo-1,2,5-thiadiazolidin-2-yl)-2-naphthyl]oxy]-2,2-dimethyl-butyl]-4-piperidyl]-3-methyl-2-oxo-benzimidazol-1-yl]piperidine-2,6-dione], the 50% degradation concentration (DC50) with PTPN2 [1] lay within 0.05 to 0.2 µM; on PTPN2 [2] it was 0.01 to 0.05 µM.

Turning to `O=C1CCC(N2C(=O)c3cccc4c(C5CCN(CC(=O)N6CC(Oc7ccc8cc(O)c(N9CC(=O)NS9(=O)=O)c(F)c8c7)C6)CC5)ccc2c34)C(=O)N1` (stereo not shown) [Example 158, 3-[6-[1-[2-[3-[[8-fluoro-6-hydroxy-7-(1,1,4-trioxo-1,2,5-thiadiazolidin-2-yl)-2-naphthyl]oxy]azetidin-1-yl]-2-oxo-ethyl]-4-piperidyl]-2-oxo-benzo[cd]indol-1-yl]piperidine-2,6-dione], the DC50 lay within 0.05 to 0.2 µM in the test on PTPN2 [1] and 0.01 to 0.05 µM on PTPN2 [2].

For `Cn1c(=O)n(C2CCC(=O)NC2=O)c2ccc(N3CCN(CC(=O)Nc4ccc5c(F)c(N6CC(=O)NS6(=O)=O)c(O)cc5c4)CC3)cc21` (stereo not shown) [Example 159, 2-[4-[1-(2,6-dioxo-3-piperidyl)-3-methyl-2-oxo-benzimidazol-5-yl]piperazin-1-yl]-N-[5-fluoro-7-hydroxy-6-(1,1,4-trioxo-1,2,5-thiadiazolidin-2-yl)-2-naphthyl]acetamide], the DC50 in the test on PTPN2 [1] and at PTPN2 [2] was 0.05 to 0.2 µM each time.

As for `Cn1c(=O)n(C2CCC(=O)NC2=O)c2ccc(C3CN(CC(=O)Nc4ccc5c(F)c(N6CC(=O)NS6(=O)=O)c(O)cc5c4)C3)cc21` (stereo not shown) [Example 160, 2-[3-[1-(2,6-dioxo-3-piperidyl)-3-methyl-2-oxo-benzimidazol-5-yl]azetidin-1-yl]-N-[5-fluoro-7-hydroxy-6-(1,1,4-trioxo-1,2,5-thiadiazolidin-2-yl)-2-naphthyl]acetamide], the DC50 with PTPN2 [1] lay in the range of 0.2 to 1 µM; at PTPN2 [2], 0.01 to 0.05 µM.

For `Cn1c(=O)n(C2CCC(=O)NC2=O)c2ccc(C3CN(CC(=O)NCCOc4ccc5cc(O)c(N6CC(=O)NS6(=O)=O)c(F)c5c4)C3)cc21` (stereo not shown) [Example 161, 2-[3-[1-(2,6-dioxo-3-piperidyl)-3-methyl-2-oxo-benzimidazol-5-yl]azetidin-1-yl]-N-[2-[[8-fluoro-6-hydroxy-7-(1,1,4-trioxo-1,2,5-thiadiazolidin-2-yl)-2-naphthyl]oxy]ethyl]acetamide], the DC50 in the test with PTPN2 [1] and at PTPN2 [2] was 0.2 to 1 µM in each case.

Turning to `Cn1c(=O)n(C2CCC(=O)NC2=O)c2ccc(C3CCN(CC(=O)N4CC[C@@H](COc5ccc6cc(O)c(N7CC(=O)NS7(=O)=O)c(F)c6c5)C4)CC3(F)F)cc21` (stereo partly drawn) [Example 162, 3-[5-[3,3-difluoro-1-[2-[(3R)-3-[[8-fluoro-6-hydroxy-7-(1,1,4-trioxo-1,2,5-thiadiazolidin-2-yl)-2-naphthyl]oxymethyl]pyrrolidin-1-yl]-2-oxo-ethyl]-4-piperidyl]-3-methyl-2-oxo-benzimidazol-1-yl]piperidine-2,6-dione], the 50% degradation concentration (DC50) lay within 0.05 to 0.2 µM with PTPN2 [1] and 0.01 to 0.05 µM on PTPN2 [2].

In the case of `Cn1nc([C@@H]2CCC(=O)NC2=O)c2ccc(N3CCC(CC(=O)Nc4ccc5c(F)c(N6CC(=O)NS6(=O)=O)c(O)cc5c4)CC3)cc21` [Example 163, 2-[1-[3-[(3S)-2,6-dioxo-3-piperidyl]-1-methyl-indazol-6-yl]-4-piperidyl]-N-[5-fluoro-7-hydroxy-6-(1,1,4-trioxo-1,2,5-thiadiazolidin-2-yl)-2-naphthyl]acetamide], the DC50 with PTPN2 [1] and at PTPN2 [2] was 0.01 to 0.05 µM each time.

As for `Cn1nc([C@H]2CCC(=O)NC2=O)c2ccc(N3CCC(CC(=O)Nc4ccc5c(F)c(N6CC(=O)NS6(=O)=O)c(O)cc5c4)CC3)cc21` [Example 164, 2-[1-[3-[(3R)-2,6-dioxo-3-piperidyl]-1-methyl-indazol-6-yl]-4-piperidyl]-N-[5-fluoro-7-hydroxy-6-(1,1,4-trioxo-1,2,5-thiadiazolidin-2-yl)-2-naphthyl]acetamide], the results for the half-maximal degradation concentration (DC50) in the test with PTPN2 [1] and on PTPN2 [2] were 0.05 to 0.2 µM and 0.01 to 0.05 µM, respectively.

For the molecule `O=C1CCC(N2C(=O)c3cccc4c(C5CCN(CC(=O)N6CC(Oc7ccc8cc(O)c(N9CC(=O)NS9(=O)=O)c(F)c8c7)C6)CC5(F)F)ccc2c34)C(=O)N1` (stereo not shown) [Example 165, 3-[6-[3,3-difluoro-1-[2-[3-[[8-fluoro-6-hydroxy-7-(1,1,4-trioxo-1,2,5-thiadiazolidin-2-yl)-2-naphthyl]oxy]azetidin-1-yl]-2-oxo-ethyl]-4-piperidyl]-2-oxo-benzo[cd]indol-1-yl]piperidine-2,6-dione], the DC50 was 0.05 to 0.2 µM with PTPN2 [1] and 0.01 to 0.05 µM at PTPN2 [2].

Turning to `CN(CCOc1ccc2cc(O)c(N3CC(=O)NS3(=O)=O)c(F)c2c1)C(=O)CNCCCc1ccc2c3c(cccc13)C(=O)N2C1CCC(=O)NC1=O` (stereo not shown) [Example 166, N-(2-((7-(1,1-dioxido-4-oxo-1,2,5-thiadiazolidin-2-yl)-8-fluoro-6-hydroxynaphthalen-2-yl)oxy)ethyl)-2-((3-(1-(2,6-dioxopiperidin-3-yl)-2-oxo-1,2-dihydrobenzo[cd]indol-6-yl)propyl)amino)-N-methylacetamide], the DC50 in the test with PTPN2 [1] fell in the range of 0.2 to 1 µM; at PTPN2 [2], 0.05 to 0.2 µM.

On to `Cn1nc(C2CCC(=O)NC2=O)c2ccc(N3CCC(CC(=O)Nc4ccc5c(F)c(N6CC(=O)NS6(=O)=O)c(O)cc5c4)CC3)cc21` (stereo not shown) [Example 167, 2-[1-[3-(2,6-dioxo-3-piperidyl)-1-methyl-indazol-6-yl]-4-piperidyl]-N-[5-fluoro-7-hydroxy-6-(1,1,4-trioxo-1,2,5-thiadiazolidin-2-yl)-2-naphthyl]acetamide], for which the 50% degradation concentration (DC50) with PTPN2 [1] and at PTPN2 [2] was 0.05 to 0.2 µM throughout.

`Cn1c(=O)n(C2CCC(=O)NC2=O)c2ccc(Nc3ccc(CC(=O)Nc4ccc5c(F)c(N6CC(=O)NS6(=O)=O)c(O)cc5c4)cn3)cc21` (stereo not shown) [Example 168, N-(6-(1,1-dioxido-4-oxo-1,2,5-thiadiazolidin-2-yl)-5-fluoro-7-hydroxynaphthalen-2-yl)-2-(6-((1-(2,6-dioxopiperidin-3-yl)-3-methyl-2-oxo-2,3-dihydro-1H-benzo[d]imidazol-5-yl)amino)pyridin-3-yl)acetamide]: the values for the DC50 in the test on PTPN2 [1] and at PTPN2 [2] were 0.01 to 0.05 µM and 0.05 to 0.2 µM, respectively.

With `Cc1cc(CC(=O)Nc2ccc3c(F)c(N4CC(=O)NS4(=O)=O)c(O)cc3c2)ccc1Nc1ccc2c(c1)n(C)c(=O)n2C1CCC(=O)NC1=O` (stereo not shown) [Example 169, N-(6-(1,1-dioxido-4-oxo-1,2,5-thiadiazolidin-2-yl)-5-fluoro-7-hydroxynaphthalen-2-yl)-2-(4-((1-(2,6-dioxopiperidin-3-yl)-3-methyl-2-oxo-2,3-dihydro-1H-benzo[d]imidazol-5-yl)amino)-3-methylphenyl)acetamide], the DC50 in the test with PTPN2 [1] and at PTPN2 [2] was 0.01 to 0.05 µM in each case.
